One compound from article PMC4251666 (ACS chemical biology, 2012) can be followed below.

For the assay, the system named is cytosolic cysteine proteases. Kind of assay: Calpain activity assay in isolated renal cytosol. The format is biochemical, New Zealand White rabbits. As to conditions: 10 μM, 50 μM SLLVY-AMC.

SMILES strings stand for the structures.

`CCCC[C@@H](C=O)NC(=O)[C@H](CC(C)C)NC(=O)OCc1ccccc1` [Calpeptin]: the “inhibition of activity in isolated cytosol” value is ~ 50%.
